Data as given in ChEMBL document CHEMBL1148208, “Aureoverticillactam, a novel 22-atom macrocyclic lactam from the marine actinomycete Streptomyces aureoverticillatus” (J Nat Prod, 2004).

Columns and labels:
Type in all cases: functional, cell-based
[1] = system: B16-F10; assay: Cytotoxicity against mouse B16F10 cells after 48 hrs; conditions: B16-F10, 48 h
[2] = system: HT-29; assay: Cytotoxicity against human HT29 cells after 48 hrs; conditions: HT-29, 48 h
[3] = system: Jurkat; assay: Cytotoxicity against human Jurkat cells after 48 hrs

CCC/C=C/CC1C/C=C/C=C(C)/C=C/C=C\C(O)CC(O)C(O)/C=C/C=C/C=C/C(=O)N1 (stereo not drawn) [AUREOVERTICILLACTAM]
EC50 [1]: 2200 nM | EC50 [2]: 3600 nM | EC50 [3]: 2300 nM
